These results are taken from patent publication US8598374B2, “GPR120 receptor agonists and uses thereof” (Metabolex, Inc, priority 2008, dated 2013).

The target of this experiment is T1, human GPR120 (Homo sapiens, UniProt Q5NUL3).
T1 construct: Flag (DYKDDDDK) (N); host or cells: HEK293 cells co-expressing Gqi5
T1 sequence (Q5NUL3 1-361): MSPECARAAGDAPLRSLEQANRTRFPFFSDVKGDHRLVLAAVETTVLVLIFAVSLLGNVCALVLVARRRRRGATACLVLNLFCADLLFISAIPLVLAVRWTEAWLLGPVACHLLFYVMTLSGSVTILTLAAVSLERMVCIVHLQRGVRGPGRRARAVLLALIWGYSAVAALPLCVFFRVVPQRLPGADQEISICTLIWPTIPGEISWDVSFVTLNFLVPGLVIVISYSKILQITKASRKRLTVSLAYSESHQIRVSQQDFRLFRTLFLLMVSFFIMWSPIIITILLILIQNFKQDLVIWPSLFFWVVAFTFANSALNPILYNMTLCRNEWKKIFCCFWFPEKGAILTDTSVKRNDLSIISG
Briefly: Intracellular Ca2+ assay (FLIPR Calcium 4, Flexstation) in human GPR120 stable cell line. In kind it is cell-based. Conditions: for % Activity (Ex. 25 Reference Compound): % activity at 2.5 μM compared to the maximal activity of the compound of Example 25 at 2.5 μM, HEK293 cells co-expressing Gqi5; for EC50: human GPR120 stably expressing cells, eight concentrations from 0.00001 to 20 μM. On the procedure:
Human GPR120 stable cell line was purchased from Multispan Inc (26219 Eden Landing Road, Hayward, Calif. 94545). This GPR120 cell line was generated in HEK293 cells co-expressing Gqi5. In this cell line, the Flag epitope tag (DYKDDDDK) was fused to the amino terminus of human GPR120 protein.
The concentration of intracellular Ca^2+ was measured as described below. Human GPR120 cells were plated in 96 well plates (Poly-D-Lysine coated black/clear Plate, Greiner Bio-One) at 70,000 cells per well and cultured overnight in conditions of 37° C. and 5% CO2. A Ca^2+ assay dye stock solution was prepared by adding 10 mL of assay buffer (HBSS/20 mM HEPES, pH 7.4) to FLIPR Calcium 4 Assay Bulk Kit (Molecular Devices). The 10 mL of Ca^2+ assay dye solution was prepared by further diluting 0.5 mL of Ca^2+ assay dye stock solution with 10 mL of assay buffer. The medium of the cells was removed and immediately 100 μL of the Ca^2+ assay dye solution was dispensed into each well followed by incubation at 37° C. and 5% CO2 for 50 minutes to incorporate the Ca^2+ dye into the cells. The cell plate was then placed in the Flexstation (Molecular Devices) for 20 minutes at 37° C. Compounds were dissolved in 100% DMSO and diluted to desired concentrations with assay buffer and placed in the Flexstation simultaneously with the cell plate for 20 minute incubation at 37° C. prior to reading. Fluorescence intensity was measured immediately following compound addition (25 μL/well) on the Flexstation at an excitation wavelength of 485 nm and an emission wavelength of 525 with 515 nm auto cutoff. The resulting increase in fluorescence intensities corresponds to increases in intracellular Ca^2+ levels.
Compounds were dissolved in 100% DMSO to a concentration of 20 mM to provide stock solutions. To determine activity against human GPR120, compounds were added with human GPR120 stably expressing cells (described above), at eight desired concentrations ranging from 0.00001 to 20 μM, in 96 well plates and fluorescence intensities were measured for 90 seconds with 2-second intervals. An EC50 value (concentration of the GPR120 agonist where 50% of the agonist's maximal activity is observed) was calculated using the changes (Max-Min) of fluorescence intensity.
To determine percent activity for a tested compound, the fluorescence intensity value obtained at a particular concentration were compared to the maximal fluorescence intensity value obtained for reference compound GW9508 (4-[[(3-phenoxyphenyl)methyl]amino]benzene propanoic acid; British Journal of Pharmacology 2006 148, 619-628) or the compound of Example 25. When GW9508 was used as the reference compound, the maximal activity of GW9508 at 6.7 μM was designated as 100% activity. When the compound of Example 25 was used as the reference compound, the maximal activity of the compound of Example 25 at 2.5 μM was designated as 100% activity. Typically, the GW9508 activity reached a maximum at a concentration of approximately 6.7 μM and typically the compound of Example 25 reached a maximum activity at approximately 2.5 μM.

As to `Cc1c(CCC(=O)O)ccc(OCc2cc(Cl)cc3c2CC(C)(C)O3)c1C` [Example 267, 3-(4-((6-chloro-2,2-dimethyl-2,3-dihydrobenzofuran-4-yl)methoxy)-2,3-dimethylphenyl)propanoic acid], the “% Activity (Ex. 25 Reference Compound)” value came to 140.82%.

The term EC50 denotes the concentration giving half of the maximal effect. `CC1(C)Cc2cc(Cl)cc(COc3ccc(SCC(=O)O)cc3)c2O1` [Example 59, 2-((4-((5-chloro-2,2-dimethyl-2,3-dihydrobenzofuran-7-yl)methoxy)phenyl)thio)-acetic acid]: the “% Activity (Ex. 25 Reference Compound)” value stood at 117.58% and the EC50 fell in the range of 1 to 10 µM. For the compound `CC1(C)Cc2cc(F)cc(COc3ccc(CCC(=O)O)c(F)c3)c2O1` [Example 48, 3-(2-fluoro-4-((5-fluoro-2,2-dimethyl-2,3-dihydrobenzofuran-7-yl)methoxy)phenyl)propanoic acid], the EC50 fell in the range of 1 to 10 µM. As to `CC1(C)Cc2cc(F)cc(COc3ccc(CCC(=O)O)c(Cl)c3)c2O1` [Example 47, 3-(2-chloro-4-((5-fluoro-2,2-dimethyl-2,3-dihydrobenzofuran-7-yl)methoxy)phenyl)propanoic acid], the “% Activity (Ex. 25 Reference Compound)” value was 111.18% and the EC50 was in the range of 1 to 10 µM. `CC1(C)Cc2cc(Cl)cc(CNc3ccc(CCC(=O)O)cc3)c2O1` [Example 127]: the “% Activity (Ex. 25 Reference Compound)” value is given as 152.93%. Same read-out and setting: then `[2H]C([2H])(C(=O)O)C([2H])([2H])c1ccc(OCc2cc(F)cc3c2OC(C)(C)C3)c(F)c1CC` [Example 243, 3-(2-ethyl-3-fluoro-4-((5-fluoro-2,2-dimethyl-2,3-dihydrobenzofuran-7-yl)methoxy)phenyl)-2,2,3,3-tetradeuteriopropanoic acid], with 155.23%; and `CC(Cc1cc(F)c(OCc2c(F)c(F)cc3c2OC(C)(C)C3)c(F)c1)C(=O)O` (stereo not shown) [Example 42, 3-(4-((5,6-difluoro-2,2-dimethyl-2,3-dihydrobenzofuran-7-yl)methoxy)-3,5-difluorophenyl)-2-methylpropanoic acid], with 140.94%. `CC(Cc1ccc(OCc2ccc(C(F)(F)F)c3c2OC(C)(C)C3)c(F)c1)C(=O)O` (stereo not shown) [Example 33, 3-(4-((2,2-dimethyl-4-(trifluoromethyl)-2,3-dihydrobenzofuran-7-yl)methoxy)-3-fluorophenyl)-2-methylpropanoic acid]: the EC50 was in the range of 1 to 10 µM. As for `CC1(C)Cc2cc(Cl)cc(COc3ccc4c(c3)CC(C(=O)O)C4)c2O1` (stereo not shown) [Example 112, 5-((5-chloro-2,2-dimethyl-2,3-dihydrobenzofuran-7-yl)methoxy)-2,3-dihydro-1H-indene-2-carboxylic acid], the “% Activity (Ex. 25 Reference Compound)” value stood at 115.42%. Same read-out and setting: then `CC(Cc1ccc(OCc2cc(Cl)cc3c2OC(C)(C)C3O)cc1)C(=O)O` (stereo not shown) [Example 130, 3-(4-((5-chloro-3-hydroxy-2,2-dimethyl-2,3-dihydrobenzofuran-7-yl)methoxy)phenyl)-2-methylpropanoic acid], with 103.85%. On to `CC1(C)Cc2cc(Cl)cc(COc3ccc(CCC(=O)O)c4c3CCC4)c2O1` [Example 64, 3-(7-((5-chloro-2,2-dimethyl-2,3-dihydrobenzofuran-7-yl)methoxy)-2,3-dihydro-1H-inden-4-yl)propanoic acid], for which the EC50 was 1 to 10 µM. With `CC1(C)Cc2cc(F)cc(COc3ccc(SCC(=O)O)cc3)c2O1` [Example 58, 2-((4-((5-fluoro-2,2-dimethyl-2,3-dihydrobenzofuran-7-yl)methoxy)phenyl)thio)-acetic acid], the EC50 lay within 1 to 10 µM. Turning to `CC1(C)Cc2cc(F)cc(COc3c(F)cc(CC4CC4C(=O)O)cc3F)c2O1` (stereo not shown) [Example 184, 2-(3,5-difluoro-4-((5-fluoro-2,2-dimethyl-2,3-dihydrobenzofuran-7-yl)methoxy)benzyl)cyclopropanecarboxylic acid], the “% Activity (Ex. 25 Reference Compound)” value came out at 97.04%. With `CC(Cc1ccc(OCc2cc(-n3cnnn3)cc3c2OC(C)(C)C3)cc1)C(=O)O` (stereo not shown) [Example 90, 3-(4-((2,2-dimethyl-5-(1H-tetrazol-1-yl)-2,3-dihydrobenzofuran-7-yl)methoxy)phenyl)-2-methylpropanoic acid], the “% Activity (Ex. 25 Reference Compound)” value is recorded as 75.86% and the EC50 was 1 to 10 µM. For `CC(Cc1cccc(OCc2cc(Cl)cc3c2OC(C)(C)C3)c1)C(=O)O` (stereo not shown) [Example 251, 3-(3-((5-chloro-2,2-dimethyl-2,3-dihydrobenzofuran-7-yl)methoxy)phenyl)-2-methylpropanoic acid], the “% Activity (Ex. 25 Reference Compound)” value was found to be 61.14%. As for `COc1cc(CCC(=O)O)c(Br)cc1OCc1cc(F)cc2c1OC(C)(C)C2` [Example 56, 3-(2-bromo-4-((5-fluoro-2,2-dimethyl-2,3-dihydrobenzofuran-7-yl)methoxy)-5-methoxyphenyl)propanoic acid], the “% Activity (Ex. 25 Reference Compound)” value came to 108.51% and the EC50 was 1 to 10 µM. On to `CC(Cc1ccc(OCc2cc(Cl)cc3c2OC(C)(C)C3=O)c(F)c1)C(=O)O` (stereo not shown) [Example 77, 3-(4-((5-chloro-2,2-dimethyl-3-oxo-2,3-dihydrobenzofuran-7-yl)methoxy)-3-fluorophenyl)-2-methylpropanoic acid], for which the “% Activity (Ex. 25 Reference Compound)” value was 109.62%.

As to `CC(CC(=O)O)c1cc(F)c(OCc2cc(Cl)cc3c2OC(C)(C)C3)c(F)c1` (stereo not shown) [Example 106, 3-(4-((5-chloro-2,2-dimethyl-2,3-dihydrobenzofuran-7-yl)methoxy)-3,5-difluorophenyl)butanoic acid], the “% Activity (Ex. 25 Reference Compound)” value is 154.51%. Still for that read-out and setting: then `CC(Cc1ccc(OCc2cc(-c3ccc(Cl)cc3)cc3c2OC(C)(C)C3)cc1)C(=O)O` (stereo not shown) [Example 82, 3-(4-((5-(4-chlorophenyl)-2,2-dimethyl-2,3-dihydrobenzofuran-7-yl)methoxy)phenyl)-2-methylpropanoic acid], with 24%. On the same count and under the same terms, with `CC1(C)Cc2cc(F)cc(COc3ccc4c(CC(=O)O)coc4c3)c2O1` [Example 262, 2-(6-((5-fluoro-2,2-dimethyl-2,3-dihydrobenzofuran-7-yl)methoxy)benzofuran-3-yl)acetic acid] the figure was 137.39%. As to `COc1cc(OCc2cc(F)cc3c2OC(C)(C)C3)ccc1CCC(=O)O` [Example 50, 3-(4-((5-fluoro-2,2-dimethyl-2,3-dihydrobenzofuran-7-yl)methoxy)-2-methoxyphenyl)propanoic acid], the “% Activity (Ex. 25 Reference Compound)” value is 129.78% and the EC50 is 1 to 10 µM. Turning to `Cc1cc(OCc2cc(F)cc3c2OC(C)(C)C3)c(C)cc1CCC(=O)O` [Example 206, 3-(4-((5-fluoro-2,2-dimethyl-2,3-dihydrobenzofuran-7-yl)methoxy)-2,5-dimethylphenyl)propanoic acid], the “% Activity (Ex. 25 Reference Compound)” value is 111.45%.

For `CC(Cc1ccc(NCc2cc(F)cc3c2OC(C)(C)C3)cc1)C(=O)O` (stereo not shown) [Example 67], the “% Activity (Ex. 25 Reference Compound)” value was 141.82% and the EC50 fell in the range of 1 to 10 µM. The corresponding values for `CC1(C)Cc2cc(F)cc(COc3ccc(CCC(=O)O)c4c3CCC4)c2O1` [Example 63, 3-(7-((5-fluoro-2,2-dimethyl-2,3-dihydrobenzofuran-7-yl)methoxy)-2,3-dihydro-1H-inden-4-yl)propanoic acid] are 95.03% and 1 to 10 µM.
